Like-named read-outs stand apart in the source and are kept apart here.
Key:
brown rice planthopper = experiment: Insecticidal test on brown rice planthopper; assay type: in vivo; conditions: 144 h
Protocol: A wettable powder prepared in accordance with Formulation Example 2 was diluted with water to a concentration of an active ingredient of 500 ppm. Rice sprouts were dipped in this solution and put in a plastic cup having a capacity of 60 mL. Ten third-instar larvae of brown rice planthopper were released in the cup, the cup was lidded and placed in a thermostatic chamber at 25° C. for 6 days, and the number of dead larvae were counted for calculation of the mortality by Equation 2. The test was carried out by one series system.

two-spotted spider mites = experiment: Miticidal test on two-spotted spider mites (seedling dip); assay type: in vivo, Tetranvchus urticae; conditions: Glycine max, 312 h; 500 ppm active ingredient, soybean seedlings with imago mites dipped, 25° C., 13 days; read-out: protective value
Protocol: A wettable powder prepared in accordance with Formulation Example 2 was diluted with water to a concentration of an active ingredient of 500 ppm. Soybean seedlings which had been inoculated with imago two-spotted spider mites were dipped in the solution and dried in air. The treated soybean seedlings were placed in a thermostatic chamber at 25° C. for 13 days, and the number of live mites were assessed for calculation of the protective value by Equation 1. The test was carried out by one series system.

cotton aphid = experiment: Insecticidal test on cotton aphid (seedling dip); assay type: in vivo; conditions: Aphis gossypii, in Cucumis sativus, 72 h
Protocol: A wettable powder prepared in accordance with Formulation Example 2 was diluted with water to a concentration of an active ingredient of 500 ppm. Cucumber seedlings which had been inoculated with larvae of cotton aphid were dipped in this solution and dried in air. The treated cucumber seedlings were placed in a thermostatic chamber at 25° C. for 3 days, and the live insects were counted for calculation of the mortality by Equation 2. The test was carried out by one series system.

diamondback moth = experiment: Insecticidal test on diamondback moth; assay type: in vivo; conditions: Plutella xylostella, 144 h
Protocol: A wettable powder prepared in accordance with Formulation Example 2 was diluted with water to a concentration of an active ingredient of 500 ppm. Cabbage leaves were dipped in this solution and dried in air and then put in a plastic cup having a capacity of 60 mL. 10 second-instar larvae of diamondback moth were released in the cup and the cup was lidded. Then, the cup was placed in a thermostatic chamber at 25° C. for 6 days, and dead moths were counted for calculation of the mortality by Equation 2. The test was carried out by one series system.

Structure (SMILES) | mortality at 500 ppm (brown rice planthopper) [%] | pest or weed control at 500 ppm (two-spotted spider mites) [%] | mortality at 500 ppm (cotton aphid) [%] | mortality at 500 ppm (diamondback moth; in Brassica oleracea) [%] | mortality at 500 ppm (diamondback moth; 500 ppm active ingredient, cabbage leaves dipped, second-instar larvae, 25° C., 6 days, read-out: mortality) [%]
Cc1cc(F)c(-n2nc(OCC(F)(F)C(F)(F)F)cc2C#N)cc1[S+]([O-])CC(F)(F)F (stereo not shown) [1-134, 5-cyano-1-{2-fluoro-4-methyl-5-(2,2,2-trifluoroethylsulfinyl)phenyl}-3-(2,2,3,3,3-pentafluoropropoxy)pyrazole] | ≥ 90 | ≥ 90 | – | – | –
Cc1cc(F)c(-n2nc(OCCC(F)(F)F)cc2C)cc1[S+]([O-])CC(F)(F)F (stereo not shown) [1-250, 1-{2-fluoro-4-methyl-5-(2,2,2-trifluoroethylsulfinyl)phenyl}-5-methyl-3-(3,3,3-trifluoropropoxy)pyrazole] | ≥ 90 | ≥ 90 | ≥ 90 | – | –
Cc1cc(F)c(-n2nc(OC(F)(F)C(F)C(F)(F)F)cc2Cl)cc1SCC(F)(F)F (stereo not shown) [1-253, 5-chloro-1-{2-fluoro-4-methyl-5-(2,2,2-trifluoroethylthio)phenyl}-3-(1,1,2,3,3,3-hexafluoropropoxy)pyrazole] | ≥ 90 | ≥ 90 | ≥ 90 | – | –
Cc1cc(F)c(-n2cc(C#N)c(OC(F)(F)C(F)OC(F)(F)F)n2)cc1[S+]([O-])CC(F)(F)F (stereo not shown) [1-1588, 4-cyano-1-{2-fluoro-4-methyl-5-(2,2,2-trifluoroethylsulfinyl)phenyl}-3-{1,1,2-trifluoro-2-(trifluoromethoxy)ethoxy}pyrazole] | – | ≥ 90 | – | – | –
Cc1cc(F)c(-n2nc(OC(F)(F)C(F)C(F)(F)F)c(Cl)c2N)cc1SCC(F)(F)F (stereo not shown) [1-263, 5-amino-4-chloro-1-{2-fluoro-4-methyl-5-(2,2,2-trifluoroethylthio)phenyl}-3-(1,1,2,3,3,3-hexafluoropropoxy)pyrazole] | ≥ 90 | ≥ 90 | – | ≥ 90 | –
Cc1cc(F)c(-n2nc(OCC(F)(F)C(F)(F)F)cc2C(=O)O)cc1SCC(F)(F)F [1-145, 1-{2-fluoro-4-methyl-5-(2,2,2-trifluoroethylthio)phenyl}-3-(2,2,3,3,3-pentafluoropropoxy)pyrazole-5-carboxylic acid] | ≥ 90 | – | – | – | –
Cc1cc(F)c(-n2nc(OC(F)(F)C(F)C(F)(F)F)c(Cl)c2N)cc1[S+]([O-])CC(F)(F)F (stereo not shown) [1-264, 5-amino-4-chloro 1-{2-fluoro-4-methyl-5-(2,2,2-trifluoroethylsulfinyl)phenyl}-3-(1,1,2,3,3,3-hexafluoropropoxy)pyrazole] | ≥ 90 | ≥ 90 | – | ≥ 90 | –
Cc1cc(F)c(-n2nc(OCC(F)(F)C(F)(F)F)c(F)c2N)cc1SCC(F)(F)F [1-41, 5-amino-1-{2-fluoro-4-methyl-5-(2,2,2-trifluoroethylthio)phenyl}-4-fluoro-3-(2,2,3,3,3-pentafluoropropoxy)pyrazole] | ≥ 90 | – | – | – | ≥ 90
CNc1c(Cl)c(OC(F)(F)C(F)C(F)(F)F)nn1-c1cc(SCC(F)(F)F)c(C)cc1F (stereo not shown) [1-261, 4-chloro-1-{2-fluoro-4-methyl-5-(2,2,2-trifluoroethylthio)phenyl}-3-(1,1,2,3,3,3-hexafluoropropoxy)-5-methylaminopyrazole] | ≥ 90 | ≥ 90 | – | ≥ 90 | –
CNc1c(Cl)c(OC(F)(F)C(F)C(F)(F)F)nn1-c1cc([S+]([O-])CC(F)(F)F)c(C)cc1F (stereo not shown) [1-262, 4-chloro-1-{2-fluoro-4-methyl-5-(2,2,2-trifluoroethylsulfinyl)phenyl}-3-(1,1,2,3,3,3-hexafluoropropoxy)-5-methylaminopyrazole] | ≥ 90 | ≥ 90 | – | ≥ 90 | –
Cc1cc(F)c(-n2nc(OCC(F)(F)C(F)(F)F)cc2CO)cc1SCC(F)(F)F [1-201, 1-{2-fluoro-4-methyl-5-(2,2,2-trifluoroethylthio)phenyl}-5-hydroxymethyl-3-(2,2,3,3,3-pentafluoropropoxy)pyrazole] | ≥ 90 | ≥ 90 | – | – | –
Cc1cc(F)c(-n2cc(Cl)c(OC(F)(F)C(F)OC(F)(F)F)n2)cc1[S+]([O-])CC(F)(F)F (stereo not shown) [1-290, 4-chloro-1-{2-fluoro-4-methyl-5-(2,2,2-trifluoroethylsulfinyl)phenyl}-3-{1,1,2-trifluoro-2-(trifluoromethoxy)ethoxy}pyrazole] | ≥ 90 | ≥ 90 | – | – | –
Cc1cc(F)c(-n2nc(OCCC(F)(F)F)cc2C)cc1SCC(F)(F)F [1-249, 1-{2-fluoro-4-methyl-5-(2,2,2-trifluoroethylthio)phenyl}-5-methyl-3-(3,3,3-trifluoropropoxy)pyrazole] | ≥ 90 | ≥ 90 | – | – | –
Cc1cc(F)c(-n2nc(OC(F)(F)C(F)OC(F)(F)F)c(Cl)c2Cl)cc1SCC(F)(F)F (stereo not shown) [1-291, 4,5-dichloro-1-{2-fluoro-4-methyl-5-(2,2,2-trifluoroethylthio)phenyl}-3-{1,1,2-trifluoro-2-(trifluoromethoxy)ethoxy}pyrazole] | ≥ 90 | ≥ 90 | – | ≥ 90 | –
Cc1cc(F)c(-n2nc(OC(F)(F)C(F)OC(F)(F)F)cc2C(F)F)cc1[S+]([O-])CC(F)(F)F (stereo not shown) [1-1532, 5-difluoromethyl-1-{2-fluoro-4-methyl-5-(2,2,2-trifluoroethylsulfinyl)phenyl}-3-{1,1,2-trifluoro-2-(trifluoromethoxy)ethoxy}pyrazole] | ≥ 90 | ≥ 90 | – | – | –
Cc1cc(F)c(-n2nc(OC(F)(F)C(F)OC(F)(F)F)cc2CF)cc1[S+]([O-])CC(F)(F)F (stereo not shown) [1-1580, 1-{2-fluoro-4-methyl-5-(2,2,2-trifluoroethylsulfinyl)phenyl}-5-fluoromethyl-3-{1,1,2-trifluoro-2-(trifluoromethoxy)ethoxy}pyrazole] | ≥ 90 | ≥ 90 | ≥ 90 | – | –
Cc1cc(F)c(-n2nc(OC(F)(F)C(F)OC(F)(F)F)c(Cl)c2Cl)cc1[S+]([O-])CC(F)(F)F (stereo not shown) [1-292, 4,5-dichloro-1-{2-fluoro-4-methyl-5-(2,2,2-trifluoroethylsulfinyl)phenyl}-3-{1,1,2-trifluoro-2-(trifluoromethoxy)ethoxy}pyrazole] | ≥ 90 | ≥ 90 | – | ≥ 90 | –
Cc1cc(F)c(-n2cc(Cl)c(OC(F)(F)C(F)OC(F)(F)F)n2)cc1SCC(F)(F)F (stereo not shown) [1-289, 4-chloro-1-{2-fluoro-4-methyl-5-(2,2,2-trifluoroethylthio)phenyl}-3-{1,1,2-trifluoro-2-(trifluoromethoxy)ethoxy}pyrazole] | ≥ 90 | ≥ 90 | – | – | –
Cc1cc(F)c(-n2nc(OCC(F)(F)C(F)(F)F)c(Cl)c2N)cc1SCC(F)(F)F [1-43, 5-amino-4-chloro-1-{2-fluoro-4-methyl-5-(2,2,2-trifluoroethylthio)phenyl}-3-(2,2,3,3,3-pentafluoropropoxy)pyrazole] | ≥ 90 | ≥ 90 | – | ≥ 90 | –
Cc1cc(F)c(-n2ccc(Oc3ccc(C(F)(F)F)cc3)n2)cc1[S+]([O-])CC(F)(F)F (stereo not shown) [1-1586, 1-{2-fluoro-4-methyl-5-(2,2,2-trifluoroethylsulfinyl)phenyl}-3-{4-(trifluoromethyl)phenoxy}pyrazole] | ≥ 90 | ≥ 90 | – | – | –
Cc1cc(F)c(-n2nc(OCC(F)(F)C(F)(F)F)c(Cl)c2Cl)cc1SCC(F)(F)F [1-111, 1-{2-fluoro-4-methyl-5-(2,2,2-trifluoroethylthio)phenyl}-4,5-dichloro-3-(2,2,3,3,3-pentafluoropropoxy)pyrazole] | ≥ 90 | ≥ 90 | – | – | –
Cc1cc(F)c(-n2ccc(C(F)(F)F)n2)cc1SCC(F)(F)F [V-613, reference compound] | – | – | 0 | – | –
Cc1cc(F)c(-n2nc(OC(F)(F)C(F)OC(F)(F)F)cc2C#N)cc1[S+]([O-])CC(F)(F)F (stereo not shown) [1-669, 5-cyano-1-{2-fluoro-4-methyl-5-(2,2,2-trifluoroethylsulfinyl)phenyl}-3-{1,1,2-trifluoro-2-(trifluoromethoxy)ethoxy}pyrazole] | ≥ 90 | ≥ 90 | – | – | –
Cc1cc(F)c(-n2nc(OCC(F)(F)C(F)(F)F)cc2C=O)cc1SCC(F)(F)F [1-199, 1-{2-fluoro-4-methyl-5-(2,2,2-trifluoroethylthio)phenyl}-5-formyl-3-(2,2,3,3,3-pentafluoropropoxy)pyrazole] | – | ≥ 90 | – | ≥ 90 | –

Source: patent US8802713B2, “3-alkoxy-1-phenylpyrazole derivatives and pesticides” (Kumiai Chemical Industry Co., Ltd., priority 2007, dated 2014)
